Laboratory results reported in BigSolDB 2.1.

Details: 298.2 K

O=C(c1ccccc1)c1ccc(O)cc1O
Details | solubility (mole fraction)
in 2-ethoxyethanol | 0.0308
in 2-isopropoxyethanol | 0.0333
in chlorobenzene | 0.0044
in cyclohexane | 5.07e-05
in diisopropyl ether | 0.00744
in ethylbenzene | 0.00408
in isooctane | 3.31e-05
in m-xylene | 0.00415
in methylcyclohexane | 6.92e-05
in n-butanol | 0.0109
in n-heptane | 3.82e-05
in n-heptanol | 0.018
in n-hexane | 3.26e-05
in n-hexanol | 0.0161
in n-octane | 4.43e-05
in n-octanol | 0.0183
in n-pentanol | 0.0125
in o-xylene | 0.00429
in p-xylene | 0.00448
in sec-butanol | 0.0103
in toluene | 0.00364
